Source: patent publication US12172965B2, “Drug conjugate comprising quinoline derivatives” (UNIVERSITE PARIS-SACLAY, priority 2018, dated 2024)
pIC50: −log10 of the molar value. Where two headings read alike, the source gives them in different places. Values belong to the compound of their own block, whether it stands above or below them. Non-standard residues stand in square brackets, D forms with d. Residues, ends and D or L forms follow the SMILES beside them. *: point of attachment. Dolaproine = CO[C@@H]([C@@H]1CCCN1)[C@@H](C)C(=O)O; Dil = CC[C@H](C)[C@H](NC)[C@@H](CC(=O)O)OC; X1 = C[C@@H](N*)[C@@H](O)c1ccccc1; NMeV = CN[C@H](C(=O)O)C(C)C

Tests used:
SKOV3 (ovarian tumour) = test: Antiproliferative activity (IC50), CellTiter Glo, SKOV3; assay type: cell-based, human; conditions: for pIC50: free, unconjugated, 72 hours of treatment, read-out: SKOV3 IC50
Excerpt: (§1) The IC50 (as per accepted terminology) activities of the compounds according to the invention 4-((3-amino-4-methoxyphenyl)(methyl)amino) quinoline-2-carbonitrile (ICQN-1); 5-(5-((2-cyanoquinolin-4-yl)(methyl)amino)-2-methoxyphenyl)-N-hydroxypent-4-ynamide (ICQN-2); and (E)-3-(5-((2-cyanoquinolin-4-yl)(methyl)amino)-2-methoxyphenyl)-N-hydroxyacrylamide (ICQN-3) were compared with compounds of the prior art and with a commercial and clinical reference compound, in particular MMAE (monomethylauristatin E). The IC50 activities were measured on various different cancer cell lines HCT116 (colorectal tumour), A549 (non-small cell lung cancer), NCI-N87 (gastric tumour), Mia-Paca-2 (pancreatic tumour), K562R (chronic myeloid leukemia), SKOV3 (ovarian tumour), SKBr3 (breast tumour, Her2 overexpression), MCF7 (breast tumour) and MDA-MB231 (breast tumour).
(§2) The cancer cell lines were obtained from the American Culture Collection (ATCC, Rockville, MD) or from the German collection of microorganisms and cell cultures of the Leibniz Institute (DSMZ, Braunschweig-Germany) or from the European collection of cell cultures (ECACC, England). The cancer cell lines were cultured according to the supplier's instructions.
(§3) The HCT-116 human colorectal carcinoma, SK-BR3 breast carcinoma, and SK-OV-3 ovarian carcinoma cells were cultured in Gibco McCoy's 5A medium supplemented with 10% foetal calf serum (FCS) and 1% glutamine.
(§4) The cells were counted using a Vi-cell XR (Beckman Coulter) and the cell viability was assessed by using 0.25% trypan blue dye exclusion assay. The cells were tested for the presence of mycoplasmas prior to the experiments with the Mycoplasma PCR detection kit (Applied Biological Materials Inc., Canada) according to the manufacturer's instructions, and only mycoplasma-free cells were used for the study. The cell lines were maintained at 37° C. in a humidified atmosphere containing 5% CO2.
(§5) After 24 hours of culturing, the cells were treated with the tested compounds at 10 different final concentrations. Each concentration was obtained from serial dilutions in culture medium starting from the stock solution. The control cells were treated with the carrier. The experiments were carried out in triplicate.
(§6) The measurements were performed after 72 hours of treatment using the CellTiter Glo assay (Promega) which makes it possible to measure through bioluminescence (quantification of adenosine triphosphate—ATP) the number of living cells, by using a PolarStar Omega microplate reader (BMG-Labtech).
(§7) The dose-response curves were plotted with the Graph Prism software application and the IC50 values were calculated using the Graph Prism software based on polynomial curves (four or five parameter logistic equations).

NCI-N87 (gastric tumour) = test: Antiproliferative activity (IC50), CellTiter Glo, NCI-N87; assay type: cell-based; conditions: for pIC50: free, unconjugated, 72 hours of treatment, read-out: NIC-N87 IC50
Excerpt: as §1, §2
(§8) The A549 lung carcinoma cells, K562R myeloid leukemia cells, and the NCI-N87 gastric carcinoma cells were cultured in Gibco Roswell Park Memorial Institute (RPMI) 1640 medium supplemented with 10% foetal calf serum (FCS) and 1% glutamine. The Mia-Paca2 carcinoma cells were cultured in Gibco Dulbecco's Modified Eagle Medium (DMEM) supplemented with 10% foetal calf serum (FCS) and 1% glutamine.
as §4, §5, §6, §7

[1] = system: K562R (chronic myeloid leukemia); test: Antiproliferative activity (IC50), CellTiter Glo, K562R; assay type: cell-based
Excerpt: as §1, §2, §8, §4, §5, §6, §7
The K562R (chronic myeloid leukemia) cells have an MDR profile that allows them to be resistant to several chemotherapeutic compounds including the reference compound MMAE.

[2] = system: Mia-Paca-2 (pancreatic tumour); test: Antiproliferative activity (IC50), CellTiter Glo, Mia-Paca-2; assay type: cell-based; conditions: for pIC50: free, unconjugated, 72 hours of treatment, read-out: Mia-Paca-2 IC50
Excerpt: as §1, §2, §8, §4, §5, §6, §7

[3] = system: SKBr3 (breast tumour, Her2 overexpression); test: Antiproliferative activity (IC50), CellTiter Glo, SKBr3; assay type: cell-based, human; conditions: for pIC50: free, unconjugated, 72 hours of treatment, read-out: SKBr3 IC50
Excerpt: as §1, §2, §3, §4, §5, §6, §7

[4] = system: MDA-MB231 (breast tumour); test: Antiproliferative activity (IC50), CellTiter Glo, MDA-MB231; assay type: cell-based; conditions: free, unconjugated, 72 hours of treatment, read-out: MDA-MB231 CI50
Excerpt: as §1, §2
(§9) The breast adenocarcinoma cells MDA-MB231 and MCF7 were cultured in Gibco RPMI 1640 culture medium supplemented with 10% foetal calf serum (FCS) and 1% glutamine.
as §4, §5, §6, §7

MCF7 (breast tumour) = test: Antiproliferative activity (IC50), CellTiter Glo, MCF7; assay type: cell-based; conditions: free, unconjugated, 72 hours of treatment, read-out: MCF7 CI50
Excerpt: as §1, §2, §9, §4, §5, §6, §7

HCT116 cell line = conditions: comparison of molecules Ia and Ib; cited from earlier work
[5] = system: HCT116 (colorectal tumour); test: Antiproliferative activity (IC50), CellTiter Glo, HCT116; assay type: cell-based, human; conditions: free, unconjugated; 72 hours of treatment; read-out: HCT116 IC50
Excerpt: as §1, §2, §3, §4, §5, §6, §7

[6] = system: A549 (non-small cell lung cancer); test: Antiproliferative activity (IC50), CellTiter Glo, A549; assay type: cell-based; conditions: free, unconjugated; 72 hours of treatment; read-out: A549 IC50
Excerpt: as §1, §2, §8, §4, §5, §6, §7

[7] = Homo sapiens, K-562R, free, unconjugated, 72 hours of treatment, read-out: K562R IC50

Compound: CN(c1ccc2c(c1)c1ccccc1n2C)c1cc(C#N)nc2ccccc12 [Ib]
drop in cytotoxic activity (factor) on replacing Me by CN at position 2 of quinoline (HCT116 cell line): 170

Compound: CC[C@H](C)[C@@H]([C@@H](CC(=O)N1CCC[C@H]1[C@H](OC)[C@@H](C)C(=O)N[C@H](C)[C@@H](O)c1ccccc1)OC)N(C)C(=O)[C@@H](NC(=O)[C@@H](NC)C(C)C)C(C)C [MMAE, monomethylauristatin E, reference compound] (H-[NMeV]V[Dil][Dolaproine]-X1)
pIC50 (SKOV3 (ovarian tumour)): 10.10
pIC50 (NCI-N87 (gastric tumour)): 8.18
pIC50 [5]: 8.82
pIC50 ([1]; free, unconjugated, 72 hours of treatment, read-out: K562R IC50): 7.71
pIC50 ([1]; resistant cancer cells, MDR profile, read-out: K562R (PgP+) IC50): 7.46
pIC50 [2]: 8.52
pIC50 [3]: 10.22
pIC50 [4]: 8.90
pIC50 (MCF7 (breast tumour)): 9.24
pIC50 [6]: 8.39

Now from value to compound, other results behind:

pIC50 (SKOV3 (ovarian tumour); Homo sapiens, SK-OV-3): 9.23
IC50 (SKOV3 (ovarian tumour); Homo sapiens, SK-OV-3, nM given only in VB118 cells, read-out: SKOV-3 (antiproliferative activity, Table 6)): 0.59 nM
pIC50 (NCI-N87 (gastric tumour); Homo sapiens, NCI-N87): 9.03
IC50 (NCI-N87 (gastric tumour); Homo sapiens, NCI-N87, nM given only in VB118 cells, read-out: NCI-N87 (antiproliferative activity, Table 6)): 0.93 nM
pIC50 [1, 7]: 9.44
IC50 ([1]; Homo sapiens, K-562R, nM given only in VB118 cells, read-out: K562R (antiproliferative activity, Table 6)): 0.36 nM
pIC50 ([2]; Homo sapiens, MIA PaCa-2): 9.54
IC50 ([2]; Homo sapiens, MIA PaCa-2, nM given only in VB118 cells, read-out: Mia-Paca-2 (antiproliferative activity, Table 6)): 0.29 nM
pIC50 ([3]; Homo sapiens, SK-BR-3): 9.42
IC50 ([3]; Homo sapiens, SK-BR-3, nM given only in VB118 cells, read-out: SKBR3 (antiproliferative activity, Table 6)): 0.38 nM
Compound: CCOc1ccc(N(C)c2cc(C#N)nc3ccccc23)cc1N [ICQN-2, 4-((3-amino-4-ethoxyphenyl)(methyl)amino)quinoline-2-carbonitrile]

pIC50 (SKOV3 (ovarian tumour); Homo sapiens, SK-OV-3): 8.58
pIC50 (NCI-N87 (gastric tumour); Homo sapiens, NCI-N87): 10.00
pIC50 [1, 7]: 9.25
pIC50 ([2]; Homo sapiens, MIA PaCa-2): 9.03
pIC50 ([3]; Homo sapiens, SK-BR-3): 8.75
pIC50 ([4]; Homo sapiens, MDA-MB-231): 9.36
pIC50 (MCF7 (breast tumour); Homo sapiens, MCF7): 9.11
Compound: COc1ccc(N(C)c2cc(C#N)nc3ccccc23)cc1/C=C/C(=O)NO [ICQN-3, (E)-3-(5-((2-cyanoquinolin-4-yl)(methyl)amino)-2-methoxyphenyl)-N-hydroxyacrylamide]

pIC50 ([1]; Homo sapiens, K-562R, resistant cancer cells, MDR profile, read-out: K562R (PgP+) IC50): 8.70
Compound: C=C(c1ccc(OC)c(N)c1)c1cc(C)nc2ccccc12 [ICQO-1, reference compound]
Ratio vs MMAE, K562R (PgP+) ([1]; resistant cancer cells, MDR profile): 17
